{"source": "patent US9802927B2", "about": "“Oxadiazine compounds and methods of use thereof” (Denali Therapeutics, Inc., priority 2015, dated 2017)", "data": [{"tested_on": "Aβ42", "experiment": "In vitro cell screening assay in H4 cells expressing human APP751: Aβ42 by sandwich ELISA", "type": "cell-based", "settings": "compounds 0.003-10 μM, incubated overnight (16-18 h), sandwich ELISA of supernatant", "description": "Human neuroglioma H4 cells were transfected with a pcDNA3.1 plasmid expressing human wild type APP751 cDNA and a stable cell line was generated using G418 selection. Cells were plated at 15,000 cells/well in Costar 96-well plates and placed at 37° C. and 5% CO2. Six hours after plating, cells were washed three times with Pro293™ chemically defined medium, followed by addition of compounds (0.003-10 μM, final DMSO concentration of 0.33%). Plates were incubated overnight (16-18 h) and supernatant was removed for quantification of Aβ peptides by sandwich ELISA. Cytotoxicity was evaluated using Cell-Titer 96W AQueous One Solution Cell Proliferation Assay according to the manufacturer's protocol.\nAβ peptide levels were quantified by sandwich ELISA. 96-well plates were coated with C-terminal specific Aβ antibodies recognizing either Aβ37, Aβ38, Aβ40, Aβ42, Aβ43 or a N-terminal specific Aβ antibody to detect Aβ 1-x. Plates were then blocked overnight at 4° C. with 1% bovine serum albumin (BSA) in PBS-T. Plates were washed and 100 μl of cultured cell supernatant or synthetic Aβ peptide standards and a detection antibody (4G8-HRP) were applied to the blocked plate and incubated overnight at 4° C. The next day, wells were washed before the addition of detection substrate (TMB peroxidase). Plates were then read for absorbance at 450 nm on a Molecular Devices SpectraMax M5e Microplate Reader.\nCompound-treated samples were normalized to samples treated with DMSO alone (no inhibition) and to samples treated with DAPT. EC50 values were calculated from values reported as percent of DMSO controls using nonlinear regression, based on a sigmoidal dose response (variable slope) model. GraphPAD software from Prism used for calculation.", "units": {"EC50": "µM"}, "values": [{"compound": "COc1nc(C2=NOCC(c3cc4cccc(C)c4o3)N2)ccc1-n1cnc(C)c1", "note": "(single isomer, unassigned) [Example 7A, 3-(6-Methoxy-5-(4-methyl-1H-imidazol-1-yl)pyridin-2-yl)-5-(7-methylbenzofuran-2-yl)-5,6-dihydro-4H-1,2,4-oxadiazine]", "EC50": "> 3"}, {"compound": "COc1nc(C2=NOCC(c3cc4cccc(C)c4o3)N2)ccc1-n1cnc(C)c1", "note": "(single isomer, unassigned) [Example 7B, 3-(6-Methoxy-5-(4-methyl-1H-imidazol-1-yl)pyridin-2-yl)-5-(7-methylbenzofuran-2-yl)-5,6-dihydro-4H-1,2,4-oxadiazine]", "EC50": 0.0233}, {"compound": "COc1nc(C2=NOCC(c3ccc(Cl)cc3C)N2C)ccc1-n1cnc(C)c1", "note": "(single isomer, unassigned) [Example 27A, 5-(4-chloro-2-methylphenyl)-3-(6-methoxy-5-(4-methyl-1H-imidazol-1-yl)pyridin-2-yl)-4-methyl-5,6-dihydro-4H-1,2,4-oxadiazine]", "EC50": 2.18}, {"compound": "COc1nc(C2=NOCC(c3ccc(Cl)cc3C)N2C)ccc1-n1cnc(C)c1", "note": "(single isomer, unassigned) [Example 27B, 5-(4-chloro-2-methylphenyl)-3-(6-methoxy-5-(4-methyl-1H-imidazol-1-yl)pyridin-2-yl)-4-methyl-5,6-dihydro-4H-1,2,4-oxadiazine]", "EC50": 0.0613}, {"compound": "COc1nc(C2=NOCC(c3ccccc3)N2)ccc1-n1cnc(C)c1", "note": "(single isomer, unassigned) [Example 36A, 3-(6-methoxy-5-(4-methyl-1H-imidazol-1-yl)pyridin-2-yl)-5-phenyl-5,6-dihydro-4H-1,2,4-oxadiazine]", "EC50": 2.74}, {"compound": "COc1nc(C2=NOCC(c3ccccc3)N2)ccc1-n1cnc(C)c1", "note": "(single isomer, unassigned) [Example 36B, 3-(6-methoxy-5-(4-methyl-1H-imidazol-1-yl)pyridin-2-yl)-5-phenyl-5,6-dihydro-4H-1,2,4-oxadiazine]", "EC50": 0.097}, {"compound": "COc1nc(C2=NOCC(c3coc4ccccc34)N2)ccc1-n1cnc(C)c1", "note": "(single isomer, unassigned) [Example 38A, 5-(benzofuran-3-yl)-3-(6-methoxy-5-(4-methyl-1H-imidazol-1-yl)pyridin-2-yl)-5,6-dihydro-4H-1,2,4-oxadiazine]", "EC50": "> 3"}, {"compound": "COc1nc(C2=NOCC(c3coc4ccccc34)N2)ccc1-n1cnc(C)c1", "note": "(single isomer, unassigned) [Example 38B, 5-(benzofuran-3-yl)-3-(6-methoxy-5-(4-methyl-1H-imidazol-1-yl)pyridin-2-yl)-5,6-dihydro-4H-1,2,4-oxadiazine]", "EC50": 0.0224}, {"compound": "COc1nc(C2=NOCC(c3ccc(F)cc3)N2)ccc1-n1cnc(C)c1", "note": "(single isomer, unassigned) [Example 40A, 5-(4-fluorophenyl)-3-(6-methoxy-5-(4-methyl-1H-imidazol-1-yl)pyridin-2-yl)-5,6-dihydro-4H-1,2,4-oxadiazine]", "EC50": "> 3"}, {"compound": "COc1nc(C2=NOCC(c3ccc(F)cc3)N2)ccc1-n1cnc(C)c1", "note": "(single isomer, unassigned) [Example 40B, 5-(4-fluorophenyl)-3-(6-methoxy-5-(4-methyl-1H-imidazol-1-yl)pyridin-2-yl)-5,6-dihydro-4H-1,2,4-oxadiazine]", "EC50": 0.0595}, {"compound": "COc1nc(C2=NOCC(c3ccc(Cl)cc3)N2)ccc1-n1cnc(C)c1", "note": "(single isomer, unassigned) [Example 42A, 5-(4-chlorophenyl)-3-(6-methoxy-5-(4-methyl-1H-imidazol-1-yl)pyridin-2-yl)-5,6-dihydro-4H-1,2,4-oxadiazine]", "EC50": "> 3"}, {"compound": "COc1nc(C2=NOCC(c3ccc(Cl)cc3)N2)ccc1-n1cnc(C)c1", "note": "(single isomer, unassigned) [Example 42B, 5-(4-chlorophenyl)-3-(6-methoxy-5-(4-methyl-1H-imidazol-1-yl)pyridin-2-yl)-5,6-dihydro-4H-1,2,4-oxadiazine]", "EC50": 0.0283}, {"compound": "COc1nc(C2=NOCC(c3ccc(F)c(C(F)(F)F)c3)N2)ccc1-n1cnc(C)c1", "note": "(single isomer, unassigned) [Example 44A, 5-(4-fluoro-3-(trifluoromethyl)phenyl)-3-(6-methoxy-5-(4-methyl-1H-imidazol-1-yl)pyridin-2-yl)-5,6-dihydro-4H-1,2,4-oxadiazine]", "EC50": "> 3"}, {"compound": "COc1nc(C2=NOCC(c3ccc(F)c(C(F)(F)F)c3)N2)ccc1-n1cnc(C)c1", "note": "(single isomer, unassigned) [Example 44B, 5-(4-fluoro-3-(trifluoromethyl)phenyl)-3-(6-methoxy-5-(4-methyl-1H-imidazol-1-yl)pyridin-2-yl)-5,6-dihydro-4H-1,2,4-oxadiazine]", "EC50": 0.0216}, {"compound": "COc1nc(C2=NOCC(c3c[nH]c4ccccc34)N2)ccc1-n1cnc(C)c1", "note": "(single isomer, unassigned) [Example 47A, 5-(1H-indol-3-yl)-3-(6-methoxy-5-(4-methyl-1H-imidazol-1-yl)pyridin-2-yl)-5,6-dihydro-4H-1,2,4-oxadiazine]", "EC50": 0.136}, {"compound": "COc1nc(C2=NOCC(c3c[nH]c4ccccc34)N2)ccc1-n1cnc(C)c1", "note": "(single isomer, unassigned) [Example 47B, 5-(1H-indol-3-yl)-3-(6-methoxy-5-(4-methyl-1H-imidazol-1-yl)pyridin-2-yl)-5,6-dihydro-4H-1,2,4-oxadiazine]", "EC50": 0.0231}, {"compound": "COc1nc(C2=NOCC(c3ccc(C(F)(F)F)c(F)c3)N2)ccc1-n1cnc(C)c1", "note": "(single isomer, unassigned) [Example 121A, 5-(3-fluoro-4-(trifluoromethyl)phenyl)-3-(6-methoxy-5-(4-methyl-1H-imidazol-1-yl)pyridin-2-yl)-5,6-dihydro-4H-1,2,4-oxadiazine]", "EC50": "> 3"}, {"compound": "COc1nc(C2=NOCC(c3ccc(C(F)(F)F)c(F)c3)N2)ccc1-n1cnc(C)c1", "note": "(single isomer, unassigned) [Example 121B, 5-(3-fluoro-4-(trifluoromethyl)phenyl)-3-(6-methoxy-5-(4-methyl-1H-imidazol-1-yl)pyridin-2-yl)-5,6-dihydro-4H-1,2,4-oxadiazine]", "EC50": 0.0214}, {"compound": "COc1nc(C2=NOCC(c3ccc(F)cc3F)N2)ccc1-n1cnc(C)c1", "note": "(single isomer, unassigned) [Example 129A, 5-(2,4-difluorophenyl)-3-(6-methoxy-5-(4-methyl-1H-imidazol-1-yl)pyridin-2-yl)-5,6-dihydro-4H-1,2,4-oxadiazine]", "EC50": 2.78}, {"compound": "COc1nc(C2=NOCC(c3ccc(F)cc3F)N2)ccc1-n1cnc(C)c1", "note": "(single isomer, unassigned) [Example 129B, 5-(2,4-difluorophenyl)-3-(6-methoxy-5-(4-methyl-1H-imidazol-1-yl)pyridin-2-yl)-5,6-dihydro-4H-1,2,4-oxadiazine]", "EC50": 0.128}, {"compound": "CCC1CON=C(c2ccc(-n3cnc(C)c3)c(OC)n2)N1", "note": "(single isomer, unassigned) [Example 133A, 5-ethyl-3-(6-methoxy-5-(4-methyl-1H-imidazol-1-yl)pyridin-2-yl)-5,6-dihydro-4H-1,2,4-oxadiazine]", "EC50": "> 3"}, {"compound": "CCC1CON=C(c2ccc(-n3cnc(C)c3)c(OC)n2)N1", "note": "(single isomer, unassigned) [Example 133B, 5-ethyl-3-(6-methoxy-5-(4-methyl-1H-imidazol-1-yl)pyridin-2-yl)-5,6-dihydro-4H-1,2,4-oxadiazine]", "EC50": 0.728}]}]}
